The source of these data is publication PMC8874540, “Pyrazole and Triazole Derivatives as Mycobacterium tuberculosis UDP-Galactopyranose Inhibitors” (Pharmaceuticals, 2022).

Where a name gives a salt, the structure may show the parent alone.

T1 sequence (P9WIQ1 whole entry): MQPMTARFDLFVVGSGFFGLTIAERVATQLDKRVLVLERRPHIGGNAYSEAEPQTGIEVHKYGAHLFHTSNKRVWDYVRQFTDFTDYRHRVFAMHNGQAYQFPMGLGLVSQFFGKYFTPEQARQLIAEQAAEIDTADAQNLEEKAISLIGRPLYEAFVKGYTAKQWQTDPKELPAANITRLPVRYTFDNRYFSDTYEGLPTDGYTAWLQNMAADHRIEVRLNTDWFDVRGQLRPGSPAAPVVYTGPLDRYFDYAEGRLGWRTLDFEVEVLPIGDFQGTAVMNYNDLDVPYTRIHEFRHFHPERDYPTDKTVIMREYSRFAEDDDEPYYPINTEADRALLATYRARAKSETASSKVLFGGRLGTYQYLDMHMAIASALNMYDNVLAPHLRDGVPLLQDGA

One assay concerns the target T1, UDP-galactopyranose mutase (MtbUGM) (Mycobacterium tuberculosis, UniProt P9WIQ1).
T1 construct: gene glf; His6-tagged MtbUGM from pET-29b(+)
Kind of assay: HPLC kinetic assay of UDP-Galf to UDP-Galp, global fit. In kind it is biochemical.
Consider `Cc1cc(OC(=O)c2ccc(S(N)(=O)=O)cc2)n(-c2ccc(Cl)cc2)n1` [DA10, 4-Sulfamoyl-[3-methyl-1-p-chlorophenyl-1H-pyrazol-5-yl] benzoic acid ester], for which affinity was put at a Ki of 51 ± 4 µM.

The target in a further assay is T1, UDP-galactopyranose mutase (MtbUGM). As to the kind of experiment: HPLC assay, % inhibition at […], […] UDP-Galf. It is filed as biochemical.
Turning to `Cc1nn(-c2ccccc2)c(O)c1C(=O)c1ccc(Cl)cc1` [DA1, 4-p-chlorobenzoyl-1-phenyl-3-methyl-5-pyrazol], the “HPLC assay, % inhibition at 60 μM, 15 μM UDP-Galf” value (“HPLC assay, % inhibition at 60 μM” below) is “DA1 and DA2 showed comparable inhibition to that of MS208”.

For the molecule `Cc1nn(-c2ccc(Cl)cc2)c(O)c1C(=O)c1ccccc1` [DA2, 4-benzoyl-1-p-chlorophenyl-3-methyl-5-pyrazol], the “HPLC assay, % inhibition at 60 μM” value is “DA1 and DA2 showed comparable inhibition to that of MS208”.

As to `Cc1nn(-c2ccc(Cl)cc2)c(O)c1S(=O)(=O)c1ccc(Cl)cc1` [DA5, 4-p-chlorobenzosulfonyl-1-p-chlorophenyl-3-methyl-5-pyrazol hydrochloride], the “HPLC assay, % inhibition at 60 μM” value was “The sulfonyl derivative, DA5, showed comparable % inhibition to that of the carbonyl derivative MS208”.

`COC(=O)c1ccc(C(=O)Oc2cc(C)nn2-c2ccc(Cl)cc2)cc1` [DA8]: the “HPLC assay, % inhibition at 60 μM” value is “two of these O-acyl analogues, DA8 and DA10 still showed comparable % inhibition to MS208”.

In the case of `O=C(CCc1cn(-c2ccc(Cl)cc2)nn1)Oc1ccc(Cl)cc1` [DA11], the “HPLC assay, % inhibition at 60 μM” value is listed as “The triazolo analogues, DA11-DA13, showed comparable % inhibition to that of MS208”.

For the molecule `OC(c1ccc(Cl)cc1)c1cn(-c2ccc(Cl)cc2)nn1` (stereo not drawn) [DA12, [1-(4-chlorophenyl)-1H-1,2,3-triazol-4-yl]-4-chlorophenylmethanol], the “HPLC assay, % inhibition at 60 μM” value is “The triazolo analogues, DA11-DA13, showed comparable % inhibition to that of MS208”.

As for `O=C(c1ccc(Cl)cc1)c1cn(-c2ccc(Cl)cc2)nn1` [DA13, 4-p-chlorobenzoyl-1-p-chlorophenyl-1H-1,2,3-triazole], the “HPLC assay, % inhibition at 60 μM” value is on record as “The triazolo analogues, DA11-DA13, showed comparable % inhibition to that of MS208”.

In the case of `Cc1nn(-c2ccc(Cl)cc2)c(O)c1C(=O)c1ccc(Cl)cc1` [MS208, 4-p-chlorobenzoyl-1-p-chlorophenyl-3-methyl-5-pyrazol], the “HPLC assay, % inhibition at 60 μM” value was “DA1 and DA2 showed comparable inhibition to that of MS208”.
